Data reported in publication PMC12827894, “Structure-guided design of picomolar-level macrocyclic TRPC5 channel inhibitors with antidepressant activity” (Acta Pharmaceutica Sinica. B, 2025).
Where a SMILES comes first, the peptide text is derived from it. Bridges are numbered along the chain shown (N, C = ends).

What was measured:
[1] = molecular target: T1, IKs (Homo sapiens, UniProt P51787); test: SafetyOne44 panel ion channels: IKs; assay type: cell-based
T1 construct: ICE Bioscience ICESTP SafetyOne44 Panel
T1 sequence (P51787 whole entry): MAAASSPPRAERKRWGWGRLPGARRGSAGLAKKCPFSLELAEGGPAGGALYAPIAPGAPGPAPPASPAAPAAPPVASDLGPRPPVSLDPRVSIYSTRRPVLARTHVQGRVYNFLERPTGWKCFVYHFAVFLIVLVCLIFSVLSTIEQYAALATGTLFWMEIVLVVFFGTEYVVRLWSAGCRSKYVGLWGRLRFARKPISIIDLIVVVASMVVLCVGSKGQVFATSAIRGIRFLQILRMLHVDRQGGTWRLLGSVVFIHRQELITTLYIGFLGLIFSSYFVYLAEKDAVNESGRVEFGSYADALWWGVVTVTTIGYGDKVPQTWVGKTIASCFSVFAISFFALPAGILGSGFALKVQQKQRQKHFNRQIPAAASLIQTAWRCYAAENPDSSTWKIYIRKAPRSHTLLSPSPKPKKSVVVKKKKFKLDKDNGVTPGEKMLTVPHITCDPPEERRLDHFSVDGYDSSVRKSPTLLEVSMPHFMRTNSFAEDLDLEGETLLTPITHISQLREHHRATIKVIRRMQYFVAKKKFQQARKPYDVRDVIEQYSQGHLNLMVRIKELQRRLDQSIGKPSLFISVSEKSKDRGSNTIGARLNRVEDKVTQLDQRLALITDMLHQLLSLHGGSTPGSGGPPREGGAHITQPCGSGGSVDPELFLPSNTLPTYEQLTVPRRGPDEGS

[2] = molecular target: T2, nAChRα4β2 (Homo sapiens, UniProt P17787+P43681); test: SafetyOne44 panel ion channels: nAChRα4β2; assay type: cell-based; details: nAChRα4β2, antagonist mode; read-out: Antagonist Reference Compounds IC50
T2 construct: ICE Bioscience ICESTP SafetyOne44 Panel

[3] = molecular target: T3, NET (Homo sapiens, UniProt P23975); test: SafetyOne44 panel: NET; assay type: cell-based
T3 construct: ICE Bioscience ICESTP SafetyOne44 Panel

[4] = molecular target: T4, 5-HTT (Homo sapiens, UniProt P31645); test: SafetyOne44 panel: 5-HTT; assay type: cell-based; details: read-out: Antagonist Reference Compound IC50
T4 construct: purchased ICE Bioscience ICESTP™ SafetyOne44 Panel
T4 sequence (P31645 whole entry): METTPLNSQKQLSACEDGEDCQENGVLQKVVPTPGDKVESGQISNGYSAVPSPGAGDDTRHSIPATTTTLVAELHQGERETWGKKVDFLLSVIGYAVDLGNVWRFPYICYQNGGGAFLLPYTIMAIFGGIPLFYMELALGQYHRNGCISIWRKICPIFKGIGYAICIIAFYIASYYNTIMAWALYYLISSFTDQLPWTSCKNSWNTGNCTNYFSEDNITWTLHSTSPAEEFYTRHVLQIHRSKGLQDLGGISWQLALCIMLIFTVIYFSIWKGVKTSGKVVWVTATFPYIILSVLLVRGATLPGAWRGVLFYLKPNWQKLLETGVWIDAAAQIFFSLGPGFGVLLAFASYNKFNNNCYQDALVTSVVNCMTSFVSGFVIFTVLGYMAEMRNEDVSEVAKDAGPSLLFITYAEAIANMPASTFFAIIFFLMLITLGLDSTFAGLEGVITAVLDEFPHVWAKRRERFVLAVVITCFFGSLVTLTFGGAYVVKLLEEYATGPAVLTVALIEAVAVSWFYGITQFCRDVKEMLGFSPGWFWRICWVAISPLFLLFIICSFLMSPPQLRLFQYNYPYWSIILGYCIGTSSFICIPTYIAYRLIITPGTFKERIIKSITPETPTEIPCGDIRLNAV

[5] = molecular target: T5, DAT (Homo sapiens, UniProt Q01959); test: SafetyOne44 panel: DAT; assay type: cell-based; details: read-out: Antagonist Reference Compound IC50
T5 construct: purchased ICE Bioscience ICESTP™ SafetyOne44 Panel
T5 sequence (Q01959 whole entry): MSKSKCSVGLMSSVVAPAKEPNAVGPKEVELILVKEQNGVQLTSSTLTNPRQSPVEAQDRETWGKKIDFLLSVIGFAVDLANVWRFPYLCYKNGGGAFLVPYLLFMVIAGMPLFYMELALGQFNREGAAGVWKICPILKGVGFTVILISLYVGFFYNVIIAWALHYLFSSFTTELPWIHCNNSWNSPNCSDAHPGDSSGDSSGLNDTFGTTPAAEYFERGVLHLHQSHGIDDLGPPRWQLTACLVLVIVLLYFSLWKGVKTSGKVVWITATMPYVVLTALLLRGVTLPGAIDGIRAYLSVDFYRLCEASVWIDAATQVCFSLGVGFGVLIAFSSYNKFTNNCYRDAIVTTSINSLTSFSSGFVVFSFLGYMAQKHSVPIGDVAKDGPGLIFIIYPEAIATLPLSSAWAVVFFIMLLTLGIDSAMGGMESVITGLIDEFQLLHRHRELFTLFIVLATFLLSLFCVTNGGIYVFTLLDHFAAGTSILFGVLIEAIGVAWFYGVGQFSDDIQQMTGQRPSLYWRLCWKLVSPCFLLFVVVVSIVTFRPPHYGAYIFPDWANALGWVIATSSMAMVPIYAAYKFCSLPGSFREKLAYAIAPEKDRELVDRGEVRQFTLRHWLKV

[6] = molecular target: T6, NR1/NR2B (Homo sapiens, UniProt Q05586+Q13224); test: SafetyOne44 panel ion channels: NR1/NR2B; assay type: cell-based
T6 construct: ICE Bioscience ICESTP SafetyOne44 Panel
T6 sequence (Q13224 27-1484, other chains not shown): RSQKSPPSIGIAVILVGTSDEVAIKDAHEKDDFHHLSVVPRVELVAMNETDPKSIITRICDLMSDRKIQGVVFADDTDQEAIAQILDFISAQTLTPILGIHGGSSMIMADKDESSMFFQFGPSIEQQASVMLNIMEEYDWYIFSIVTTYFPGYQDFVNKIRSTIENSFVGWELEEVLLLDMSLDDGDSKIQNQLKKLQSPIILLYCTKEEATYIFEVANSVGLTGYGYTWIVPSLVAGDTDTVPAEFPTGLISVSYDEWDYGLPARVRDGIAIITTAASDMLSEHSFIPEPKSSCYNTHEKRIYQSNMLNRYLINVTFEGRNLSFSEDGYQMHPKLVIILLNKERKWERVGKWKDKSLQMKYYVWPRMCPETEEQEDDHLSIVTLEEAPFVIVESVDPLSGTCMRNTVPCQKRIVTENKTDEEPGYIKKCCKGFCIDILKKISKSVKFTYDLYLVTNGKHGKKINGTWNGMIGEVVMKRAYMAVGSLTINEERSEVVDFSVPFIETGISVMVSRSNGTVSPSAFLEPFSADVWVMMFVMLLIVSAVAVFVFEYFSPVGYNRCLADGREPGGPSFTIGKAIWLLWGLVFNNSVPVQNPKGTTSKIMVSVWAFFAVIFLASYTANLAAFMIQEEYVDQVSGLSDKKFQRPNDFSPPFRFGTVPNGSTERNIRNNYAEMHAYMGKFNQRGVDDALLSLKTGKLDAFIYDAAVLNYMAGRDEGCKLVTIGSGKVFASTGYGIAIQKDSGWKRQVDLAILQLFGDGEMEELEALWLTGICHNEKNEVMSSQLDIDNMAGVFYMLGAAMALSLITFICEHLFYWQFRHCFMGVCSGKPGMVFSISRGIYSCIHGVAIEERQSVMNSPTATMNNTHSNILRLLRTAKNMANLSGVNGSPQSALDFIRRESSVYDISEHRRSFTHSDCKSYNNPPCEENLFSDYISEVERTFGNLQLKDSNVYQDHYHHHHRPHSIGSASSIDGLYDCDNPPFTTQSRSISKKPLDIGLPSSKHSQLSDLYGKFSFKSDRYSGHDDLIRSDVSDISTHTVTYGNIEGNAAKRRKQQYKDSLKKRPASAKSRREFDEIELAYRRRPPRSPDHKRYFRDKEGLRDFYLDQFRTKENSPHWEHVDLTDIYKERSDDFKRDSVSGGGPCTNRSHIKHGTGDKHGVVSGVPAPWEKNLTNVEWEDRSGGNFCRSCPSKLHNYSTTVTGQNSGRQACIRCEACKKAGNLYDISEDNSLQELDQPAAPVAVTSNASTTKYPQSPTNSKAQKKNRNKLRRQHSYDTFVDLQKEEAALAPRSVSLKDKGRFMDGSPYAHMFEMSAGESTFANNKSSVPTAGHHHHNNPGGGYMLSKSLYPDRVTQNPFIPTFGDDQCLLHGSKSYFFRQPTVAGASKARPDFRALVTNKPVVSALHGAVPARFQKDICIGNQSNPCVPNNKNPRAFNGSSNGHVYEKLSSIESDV

[7] = molecular target: T7, ETA (Homo sapiens, UniProt P25101); test: SafetyOne44 panel: ETA; assay type: cell-based
T7 construct: purchased ICE Bioscience ICESTP™ SafetyOne44 Panel
T7 sequence (P25101 21-427): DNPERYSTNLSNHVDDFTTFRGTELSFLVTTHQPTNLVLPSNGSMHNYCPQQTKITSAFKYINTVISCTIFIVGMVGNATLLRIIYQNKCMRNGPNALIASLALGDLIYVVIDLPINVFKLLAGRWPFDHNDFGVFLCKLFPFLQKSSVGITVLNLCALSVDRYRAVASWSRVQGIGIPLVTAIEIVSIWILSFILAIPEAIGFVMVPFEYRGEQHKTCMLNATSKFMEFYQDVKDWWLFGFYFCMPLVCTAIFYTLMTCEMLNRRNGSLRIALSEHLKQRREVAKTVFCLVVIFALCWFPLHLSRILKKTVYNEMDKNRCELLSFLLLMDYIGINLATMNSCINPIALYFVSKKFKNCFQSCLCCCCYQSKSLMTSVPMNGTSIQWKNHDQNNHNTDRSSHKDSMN

[8] = molecular target: T8, CCK1 (Homo sapiens, UniProt P32238); test: SafetyOne44 panel: CCK1; assay type: cell-based; details: CCK1, antagonist mode; read-out: Antagonist Reference Compound IC50
T8 construct: purchased ICE Bioscience ICESTP™ SafetyOne44 Panel
T8 sequence (P32238 1-428): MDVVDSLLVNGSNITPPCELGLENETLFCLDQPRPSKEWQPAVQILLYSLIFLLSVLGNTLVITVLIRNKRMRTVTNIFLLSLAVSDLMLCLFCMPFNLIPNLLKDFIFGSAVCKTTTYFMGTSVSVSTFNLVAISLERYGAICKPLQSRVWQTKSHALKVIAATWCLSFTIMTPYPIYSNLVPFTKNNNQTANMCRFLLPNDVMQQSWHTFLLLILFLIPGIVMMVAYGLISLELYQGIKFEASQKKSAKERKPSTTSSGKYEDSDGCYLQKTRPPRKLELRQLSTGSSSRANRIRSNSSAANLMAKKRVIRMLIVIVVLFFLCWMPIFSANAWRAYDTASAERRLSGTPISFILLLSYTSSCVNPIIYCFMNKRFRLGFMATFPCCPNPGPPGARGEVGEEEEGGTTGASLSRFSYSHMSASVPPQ

[9] = molecular target: T9, H2 (Homo sapiens, UniProt P25021); test: SafetyOne44 panel: H2; assay type: cell-based; details: H2, antagonist mode; read-out: Antagonist Reference Compound IC50
T9 construct: purchased ICE Bioscience ICESTP™ SafetyOne44 Panel

[10] = molecular target: T10, 5-HT2B (Homo sapiens, UniProt P41595); test: cell-based; assay type: cell-based; details: read-out: Antagonist Reference Compound IC50
T10 construct: purchased ICE Bioscience ICESTP SafetyOne44 Panel
T10 sequence (P41595 whole entry): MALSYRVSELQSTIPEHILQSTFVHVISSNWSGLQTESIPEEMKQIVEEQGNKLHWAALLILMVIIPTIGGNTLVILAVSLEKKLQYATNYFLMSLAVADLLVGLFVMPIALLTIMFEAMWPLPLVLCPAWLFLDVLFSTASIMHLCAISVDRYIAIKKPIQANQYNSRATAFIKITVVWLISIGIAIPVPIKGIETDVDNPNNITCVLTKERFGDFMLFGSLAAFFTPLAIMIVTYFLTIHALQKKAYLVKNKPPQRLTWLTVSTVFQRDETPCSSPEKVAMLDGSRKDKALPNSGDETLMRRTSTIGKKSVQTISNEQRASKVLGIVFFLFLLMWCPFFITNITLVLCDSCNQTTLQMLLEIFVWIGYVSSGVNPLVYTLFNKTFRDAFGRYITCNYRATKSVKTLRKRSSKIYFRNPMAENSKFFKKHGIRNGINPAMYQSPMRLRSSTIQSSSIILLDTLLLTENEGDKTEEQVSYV

[11] = molecular target: T11, 5-HT1B (Homo sapiens, UniProt P28222); test: cell-based; details: agonist mode, read-out: Agonist Reference Compound EC50
T11 construct: purchased ICE Bioscience ICESTP SafetyOne44 Panel
T11 sequence (P28222 whole entry): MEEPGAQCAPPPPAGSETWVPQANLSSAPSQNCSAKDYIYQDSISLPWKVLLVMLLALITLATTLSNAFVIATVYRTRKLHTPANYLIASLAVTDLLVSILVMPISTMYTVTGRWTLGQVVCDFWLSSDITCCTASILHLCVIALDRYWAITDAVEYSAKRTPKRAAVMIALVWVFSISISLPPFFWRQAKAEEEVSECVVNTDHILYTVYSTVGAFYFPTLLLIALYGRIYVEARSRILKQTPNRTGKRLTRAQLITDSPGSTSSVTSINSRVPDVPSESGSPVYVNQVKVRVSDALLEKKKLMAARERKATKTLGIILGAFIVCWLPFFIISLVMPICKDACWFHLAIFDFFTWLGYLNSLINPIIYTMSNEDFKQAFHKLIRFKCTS

[12] = molecular target: T12, LCK (Homo sapiens, UniProt P06239); test: biochemical; details: read-out: Antagonist Reference Compound IC50
T12 construct: purchased ICE Bioscience ICESTP™ SafetyOne44 Panel
T12 sequence (P06239 whole entry): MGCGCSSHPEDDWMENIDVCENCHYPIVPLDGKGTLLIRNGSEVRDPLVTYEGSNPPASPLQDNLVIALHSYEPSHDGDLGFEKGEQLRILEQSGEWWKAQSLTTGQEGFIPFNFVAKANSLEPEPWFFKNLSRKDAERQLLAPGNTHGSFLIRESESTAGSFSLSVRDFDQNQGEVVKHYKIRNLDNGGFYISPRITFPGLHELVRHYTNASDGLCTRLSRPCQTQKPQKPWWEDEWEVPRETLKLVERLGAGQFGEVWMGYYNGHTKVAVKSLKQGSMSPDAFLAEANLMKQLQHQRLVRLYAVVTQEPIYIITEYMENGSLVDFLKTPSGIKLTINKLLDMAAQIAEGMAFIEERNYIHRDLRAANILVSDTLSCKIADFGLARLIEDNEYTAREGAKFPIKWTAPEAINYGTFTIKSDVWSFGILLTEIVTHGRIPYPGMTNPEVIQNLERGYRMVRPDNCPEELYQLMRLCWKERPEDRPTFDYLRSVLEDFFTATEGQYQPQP

[13] = molecular target: T13, TRPC5 (Homo sapiens, UniProt Q9UL62); test: cell-based; details: for IC50: HEK293T, 100 nmol/L Englerin A, read-out: IC50, inhibition of TRPC5, calcium flux assay; for TRPC5 inhibitory activity in words (SAR): relative to compound 6
T13 sequence (Q9UL62 1-973): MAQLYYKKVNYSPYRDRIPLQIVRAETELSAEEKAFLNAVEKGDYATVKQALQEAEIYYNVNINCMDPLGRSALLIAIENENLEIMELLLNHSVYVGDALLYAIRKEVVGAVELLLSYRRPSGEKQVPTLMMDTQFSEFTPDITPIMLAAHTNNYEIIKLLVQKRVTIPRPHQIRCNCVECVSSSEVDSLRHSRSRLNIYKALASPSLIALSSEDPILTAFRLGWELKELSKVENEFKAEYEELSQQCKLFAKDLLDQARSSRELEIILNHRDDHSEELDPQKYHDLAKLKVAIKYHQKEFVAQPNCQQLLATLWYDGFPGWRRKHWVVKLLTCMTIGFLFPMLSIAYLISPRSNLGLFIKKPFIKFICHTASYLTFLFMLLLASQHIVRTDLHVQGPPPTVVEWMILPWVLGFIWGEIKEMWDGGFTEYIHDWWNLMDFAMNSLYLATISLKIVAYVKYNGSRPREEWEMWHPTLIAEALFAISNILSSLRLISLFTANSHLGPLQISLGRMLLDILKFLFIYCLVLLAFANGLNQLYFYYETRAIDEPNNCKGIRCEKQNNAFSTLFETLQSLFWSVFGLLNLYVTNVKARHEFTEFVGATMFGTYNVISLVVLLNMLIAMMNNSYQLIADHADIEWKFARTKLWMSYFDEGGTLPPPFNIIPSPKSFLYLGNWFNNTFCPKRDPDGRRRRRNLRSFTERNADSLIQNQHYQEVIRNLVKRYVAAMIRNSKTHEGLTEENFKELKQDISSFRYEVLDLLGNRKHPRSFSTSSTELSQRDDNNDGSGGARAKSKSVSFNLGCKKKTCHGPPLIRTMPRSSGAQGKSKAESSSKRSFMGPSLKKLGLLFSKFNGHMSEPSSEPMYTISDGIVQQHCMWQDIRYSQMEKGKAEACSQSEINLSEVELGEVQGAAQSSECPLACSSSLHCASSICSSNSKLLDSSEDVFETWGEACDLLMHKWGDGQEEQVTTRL

With `CCS(=O)(=O)N(C)[C@H]1c2cc(C#N)ccc2OC(C)(C)[C@@H]1O` [293B, reference compound] the “Antagonist Reference Compounds % Inh” value [1] was 90.96%.
Compound `CCN(CC)CCOC(=O)C(c1ccccc1)c1ccccc1` [Adiphenine, reference compound] has an IC50 [2] of 547 nM.
Work on `c1ccc2cc([C@]34CNC[C@H]3C4)ccc2c1` [Centanafadine, reference compound] yielded an IC50 [3] of 139 nM, an IC50 [4] of 126 nM and an IC50 [5] of 144 nM.
`NC(CCCP(=O)(O)O)C(=O)O` [D-AP5, reference compound] was tested, and the “Antagonist Reference Compounds % Inh” value ([6]; NR1/NR2B, antagonist mode) was 87.44%.
`CC[C@H](C)[C@H](NC(=O)[C@H](CC(=O)O)NC(=O)[C@H](CC(C)C)NC(=O)[C@H](Cc1cnc[nH]1)NC(=O)[C@@H]1CSSC[C@H](N)C(=O)N[C@@H](CO)C(=O)N[C@H]2CSSC[C@H](NC(=O)[C@H](CCC(=O)O)NC(=O)[C@H](CCCCN)NC(=O)[C@H](CC(=O)O)NC(=O)[C@H](CC(C)C)NC(=O)[C@H](Cc3c[nH]c4ccccc34)NC(=O)[C@H](CO)NC(=O)[C@H](CO)NC2=O)C(=O)N[C@@H](C(C)C)C(=O)N[C@@H](Cc2ccc(O)cc2)C(=O)N[C@@H](Cc2ccccc2)C(=O)N1)C(=O)N[C@H](C(=O)N[C@@H](Cc1c[nH]c2ccccc12)C(=O)O)[C@@H](C)CC` [Endothelin 2, reference compound] (H-CSCSSWLDKECVYFCHLDIIW-OH; disulfide 1-15, 3-11) gave an EC50 [7] of 1.89 nM.
Compound `NCC(=O)O` [Glycine, reference compound] has an EC50 ([6]; read-out: Agonist Reference Compounds EC50) of 132 nM.
In the case of `CCCCCN(CCCOC)C(=O)C(CCC(=O)O)NC(=O)c1ccc(Cl)c(Cl)c1` (stereo not drawn) [Loxiglumide, reference compound], the IC50 [8] is reported as 353 nM.
`CCCNS(=O)(=O)Nc1ncnc(OCCOc2ncc(Br)cn2)c1-c1ccc(Br)cc1` [Macitentan, reference compound] showed an IC50 ([7]; ETA, antagonist mode, read-out: Antagonist Reference Compound IC50) of 3.29 nM.
Compound `CNC(=C[N+](=O)[O-])NCCSCc1csc(CN(C)C)n1` [Nizatidine, reference compound] has an IC50 [9] of 112 nM.
With `CC(C)c1cc(-c2ccc(F)c3ccccc23)nc(N)n1` [RS-127445, reference compound] the IC50 [10] was 0.972 nM.
In the case of `COc1ccc2[nH]cc(C3=CCNCC3)c2c1` [RU 24969, reference compound], the EC50 [11] is reported as 4.25 nM.
`Cc1cc(-c2cc(O)ccc2Cl)cc2nnc(Nc3ccc(OCCN4CCCC4)cc3)nc12` [TG 100572, reference compound] was tested, and the IC50 [12] was 0.76 nM.
In the case of `O=c1c2c3nc(n2Cc2ccc(Cl)cc2)Oc2cccc(c2)OCCCCCn3c(=O)n1CCCO` [compound 5], the IC50 [13] is reported as 28.4 nM.
`O=c1c2c3nc(n2Cc2ccc(Cl)cc2)Oc2cccc(c2)OCCCCCCn3c(=O)n1CCCO` [compound 6] was tested, and the IC50 [13] was 1.1 nM.
For `O=c1c2c3nc(n2Cc2ccc(Cl)cc2)Oc2cccc(c2)OCCCCCCCn3c(=O)n1CCCO` [compound 7], the IC50 [13] was 19.2 nM.
With `O=c1c2c3nc(n2Cc2ccc(Cl)cc2)Oc2cc(ccc2Cl)OCCCCCCn3c(=O)n1CCCO` [compound 8] the IC50 [13] was 89.1 nM and the “fold decrease in activity (vs compound 6)” value (from here on “fold decrease in activity”) ([13]; calcium flux, SAR) was “about 90 fold”.
With `O=c1c2c3nc(n2Cc2ccc(Cl)cc2)Oc2ccc(Cl)c(c2)OCCCCCCn3c(=O)n1CCCO` [compound 9] the IC50 [13] was 97.5 nM and the “fold decrease in activity” value ([13]; calcium flux, SAR) was “about 90 fold”.
`O=c1c2c3nc(n2Cc2ccc(Cl)cc2)Oc2cncc(c2)OCCCCCCn3c(=O)n1CCCO` [compound 11] was tested, and the IC50 [13] was 0.08 nM and the “fold increase in activity (vs compound 6)” value ([13]; calcium flux, SAR) was “about 10 fold”.
For `CCCn1c2nc3c1c(=O)n(CCCO)c(=O)n3CCCCCCOc1cccc(c1)O2` [compound 12], the IC50 [13] was 3500 nM and the “fold decrease in activity” value ([13]; calcium flux, SAR) was “over 1000 fold”.
With `O=c1c2c3nc(n2CCC(F)(F)F)Oc2cccc(c2)OCCCCCCn3c(=O)n1CCCO` [compound 13] the IC50 [13] was 1200 nM and the “fold decrease in activity” value ([13]; calcium flux, SAR) was “over 1000 fold”.
With `O=c1c2c3nc(n2Cc2nccs2)Oc2cccc(c2)OCCCCCCn3c(=O)n1CCCO` [compound 14] the IC50 [13] was 1500 nM and the “fold decrease in activity” value ([13]; calcium flux, SAR) was “over 1000 fold”.
For `O=c1c2c3nc(n2Cc2ncco2)Oc2cccc(c2)OCCCCCCn3c(=O)n1CCCO` [compound 15], the IC50 [13] was > 10000 nM and the “fold decrease in activity” value ([13]; calcium flux, SAR) was “over 1000 fold”.
In the case of `O=c1c2c3nc(n2Cc2cccc(Cl)c2)Oc2cccc(c2)OCCCCCCn3c(=O)n1CCCO` [compound 16], the IC50 [13] is reported as 1.8 nM and the “TRPC5 inhibitory activity in words (SAR)” value ([13]; calcium flux) is reported as “tolerated”.
In the case of `O=C1NCCCCCn2c(=O)n(CCCO)c(=O)c3c2nc(n3Cc2ccc(Cl)cc2)Oc2cccc1c2` [compound 17], the IC50 [13] is reported as > 10000 nM and the “TRPC5 inhibitory activity in words (SAR)” value ([13]; calcium flux) is reported as “completely abolishing the activity”.
With `O=c1c2c3nc(n2Cc2ccc(Cl)cc2)Oc2cccc(c2)COCCOCCn3c(=O)n1CCCO` [compound 18] the IC50 [13] was 170 nM and the “fold decrease in activity” value ([13]; calcium flux, SAR) was 100 fold.
With `O=c1c2c3nc(n2Cc2ccc(Cl)cc2)Oc2cccc(c2)OCCNCCCn3c(=O)n1CCCO` [compound 19] the IC50 [13] was 840 nM and the “TRPC5 inhibitory activity in words (SAR)” value ([13]; calcium flux) was “reduced activity”.
`CC(C)(O)CCn1c(=O)c2c3nc(n2Cc2ccc(Cl)cc2)Oc2cccc(c2)OCCCCCCn3c1=O` [compound 20] showed an IC50 [13] of 10000 nM.
With `CC(O)CCn1c(=O)c2c3nc(n2Cc2ccc(Cl)cc2)Oc2cccc(c2)OCCCCCCn3c1=O` (stereo not drawn) [compound 21] the IC50 [13] was 10 nM and the “TRPC5 inhibitory activity in words (SAR)” value ([13]; calcium flux) was “tolerated”.
In the case of `CC(CO)Cn1c(=O)c2c3nc(n2Cc2ccc(Cl)cc2)Oc2cccc(c2)OCCCCCCn3c1=O` (stereo not drawn) [compound 22], the IC50 [13] is reported as 220 nM.
In the case of `O=c1c2c3nc(n2Cc2ccc(Cl)cc2)Oc2cccc(c2)OCCCCCCn3c(=O)n1CC(O)CO` (stereo not drawn) [compound 23], the IC50 [13] is reported as 790 nM.
In the case of `O=c1c2c3nc(n2Cc2ccc(Cl)cc2)Oc2cccc(c2)OCCCCCCn3c(=O)n1CC(F)(F)CO` [compound 24], the IC50 [13] is reported as 440 nM.
